{"source": "patent US5703089A", "about": "“Dihydrodibenzisoquinolinediones” (Knoll Aktiengesellschaft, priority 1996, dated 1997)", "key": {"[1]": {"system": "HT-29 colon carcinoma cells", "test": "Inhibition of HT-29 tumor cell proliferation (MTT cytotoxicity, 72 h)", "assay_type": "cell-based", "settings": "HT-29, 72 h", "experimental": "Cytotoxicity may be measured using standard methodology for adherent cell lines such as the microculture tetrazolium assay (MTT). Details of this assay have been published Cancer Research 48:589-601, 1988). Exponentially growing cultures of tumor cells such as the HT-29 colon carcinoma or LX-1 lung tumor are used to make microtiter plate cultures. Cells are seeded at 5000-20,000 cells per well in 96-well plates (in 150 μl of media), and grown overnight at 37° C. Test compounds are added, in dilutions varying from 10^-4 M to 10^-10 M. The cells are then incubated for 48-72 hours. To determine the number of viable cells in each well, the MTT dye is added (50 μl of 3 mg/ml solution of 3-(4,5-dimethylthiazol-2-yl)-2,5-diphenyltetrazolium bromide in saline). This mixture is incubated at 37° C. for 5 hours, and then 50 μl of 25% strength SDS (pH 2) is added to each well. After overnight incubation, the absorbance of each well at 550 nm is read using an ELISA reader. The values for the mean +/- SD of data from quadruplicate wells are calculated, using the formula % T/C (% cells treated/control). [formula]\nThe concentration of test compound which gives a T/C of 50% growth inhibition is designated as the IC50.\nInhibition of HT-29 tumor cell proliferation^a.\n^a Dihydrodibenzoquinolinedione cytotoxicity studies were performed a\nfollows: HT29 cells were seeded (5000) into each well of 96 well dishes.\nAfter plating overmight a titration of dihydrodibenzoquinolinedione was\nadded giving a final volume of 200 ul. Following incubation for 72 h 50 u\nof MTT (3 mg/ml) in PBS was added to each well and incubated for 5 hours\nat 37° C. The reaction was stopped by the addition of 50 ul of 25%\nSDS, pH 2. After an overnight incubation at 37° C. the absorbance,\ndue to metabolized MTT, was read with a plate reader at 550 nm.\nCytotoxicity was calculate as the well absorbance expressed as a\npercentage on nondrug treated control. All estimates were made in\n^b 10^-2 M stock solution made in 10% acetic acid then diluted in\n^c 10^-2 M stock solution made in 10% DMSO then diluted in media.\n^d 10^-4 M stock solution made in 10% acetic acid/10% DMSO then\n^e 10^-2 M stock suspention made in DMSO then diluted in media to […]"}, "M5076 murine sarcoma": {"system": "M5076 murine sarcoma", "test": "In vivo anti-tumor activity on M5076 murine sarcoma (survival)", "parameters": "species or system C57BL/6 mice", "settings": "for % T/C: treated MST/control MST; for MST: treated on days 1.5 and 9", "experimental": "Compounds according to the invention may be further tested in any of the various preclinical assays for in vivo activity which are indicative of clinical utility. Such assays may be conducted with human tumors implanted in nude mice as xenografts or mouse tumors implanted in conventional mice in the strain of origin (syngeneic), as is well known in this field. Test compounds are evaluated for their antitumor efficacy following administration to the tumor-bearing mice.\nMore specifically, human tumors which have been grown in athymic nude mice or mouse tumors grown in their synergeneic host are transplanted into new recipient animals, using either tumor fragments which are about 50 mg in size or 1×10^6 cells harvested from ascites fluid. The day of transplantation is designated as day 0 and the host mice are subsequently injected intravenously or intraperitoneally with the test compounds, in group of 5 to 10 mice per dose level. The compounds are administered either as a single dose or on an intermittent or frequent dosing schedule at doses from 0.1 to 100 mg/kg body weight. Tumor size of solid tumors are measured by vernier calipers in two directions and the volume estimated by the formula: […]\nLife span studies following i.p. administration of tumor cells are evaluated on the base of median survival time (MST). The MST of drug treated (T) mice are compared to the MST of control (C) mice and expressed as T/C percent. Compounds producing a T/C percent of >100% indicates some reduction in tumor burden. Values of 125 to 150% may be considered to reflect moderate activity, values of 150 to 200% good to excellent activity, and >200% outstanding activity.\nIn vivo anti-tumor activity of a Dihydrodibenzoquinolinedione analog on M5076 murine sarcoma^a.\n^a C57BL/6 mice (6 per group) were inoculated with 10^6 M5076\ncells on day 0. Mice were treated on days 1.5 and 9 with the\ndimethanesulfonate salt of example 1 at the dose levels shown. Mice died\nas a consequence of tumor burden with median survival times (MST) as\nshown. In both studies meaningful antitumor activity was produce as\nindicated by a treated MST/Control MST percentage (% T/C) being"}, "[2]": {"settings": "10^-2 M stock solution made in 10% DMSO then diluted in media"}, "[3]": {"settings": "Homo sapiens, 10^-2 M stock solution made in 10% DMSO then diluted in media"}, "[4]": {"settings": "Homo sapiens, 10^-4 M stock solution made in 10% acetic acid/10% DMSO then diluted in media"}, "[5]": {"settings": "10^-2 M stock solution made in 10% acetic acid then diluted in media"}, "[6]": {"settings": "Homo sapiens, 10^-2 M stock solution made in 10% acetic acid then diluted in media"}, "[7]": {"settings": "10^-2 M stock suspension made in DMSO then diluted in media to form a solution"}}, "note": "“And” between values parts separate entries of the source, which are not always exact repeats. Identical values can stand only once. Counter-ions that a name gives are not always drawn."}
{"smiles": "CN(CCN(C)CCN1C(=O)c2cccc3cc4ccccc4c(c23)C1=O)CCN1C(=O)c2cccc3cc4ccccc4c(c23)C1=O", "note": "[Example 14, N,N'-Bis[2-(1,2-dihydro-1,3-dioxo-3H-dibenz[de,h]isoquinolin-2-yl)ethyl]-N,N'-dimethyl-1,2-ethylenediamine]", "values": [{"measurement": "IC50", "setting": "[1]; [2]", "value": 80, "unit": "nM"}, {"measurement": "IC50", "setting": "[1]; [3]", "value": 70, "unit": "nM"}]}
{"smiles": "O=C1c2cccc3cc4ccccc4c(c23)C(=O)N1CCNCCCCCNCCN1C(=O)c2cccc3cc4ccccc4c(c23)C1=O", "note": "[Example 15, N,N'-Bis[2-(1,2-dihydro-1,3-dioxo-3H-dibenz[de,h]isoquinolin-2-yl)ethyl]-1,5-pentanediamine]", "values": [{"measurement": "IC50", "setting": "[1]; [3]", "value": 8, "unit": "nM"}]}
{"smiles": "O=C1c2cccc3cc4ccccc4c(c23)C(=O)N1CCNCCN1C(=O)c2cccc3cc4ccccc4c(c23)C1=O", "note": "[Example 9, Bis[2-(1,2-dihydro-1,3-dioxo-3H-dibenz[de,h]isoquinolin-2-yl)ethyl)amine]", "values": [{"measurement": "IC50", "setting": "[1]; [4]", "value": 20, "unit": "nM"}]}
{"smiles": "O=C1c2cccc3cc4ccccc4c(c23)C(=O)N1CCCCNCCCN1C(=O)c2cccc3cc4ccccc4c(c23)C1=O", "note": "[Example 4, [3-(1,2-dihydro-1,3-dioxo-3H-dibenz[de,h]isoquinolin-2-yl)propyl][4-(1,2-dihydro-1,3-dioxo-3,4-dibenz[de,h]isoquinolin-2-yl)butyl]amine]", "values": [{"measurement": "IC50", "setting": "[1]; 10^-4 M stock solution made in 10% acetic acid/10% DMSO then diluted in media", "value": 50, "unit": "nM"}, {"measurement": "IC50", "setting": "[1]; [4]", "value": 90, "unit": "nM"}]}
{"smiles": "O=C1c2cccc3cc4ccccc4c(c23)C(=O)N1CCCNCCCNCCCN1C(=O)c2cccc3cc4ccccc4c(c23)C1=O", "note": "[Example 11, N,N'-Bis[3-(1,2-dihydro-1,3-dioxo-3H-dibenz[de,h]isoquinolin-2-yl)propyl]-1,3-propanediamine]", "values": [{"measurement": "IC50", "setting": "[1]; [5]", "value": 80, "unit": "nM"}, {"measurement": "IC50", "setting": "[1]; [6]", "value": 100, "unit": "nM"}]}
{"smiles": "O=C1c2cccc3cc4c([N+](=O)[O-])cccc4c(c23)C(=O)N1CCNCCCNCCN1C(=O)c2cccc3cc4c([N+](=O)[O-])cccc4c(c23)C1=O", "note": "[Example 12, N,N'-Bis[2-(1,2-dihydro-8-nitro-1,3-dioxo-3H-dibenz[de,h]isoquinolin-2-yl)ethyl]-1,3-propanediamine]", "values": [{"measurement": "IC50", "setting": "[1]; [7]", "value": 40, "unit": "nM"}, {"measurement": "IC50", "setting": "[1]; Homo sapiens, 10^-2 M stock suspension made in DMSO then diluted in media to form a solution", "value": 30, "unit": "nM"}]}
{"smiles": "O=C1c2cccc3cc4c([N+](=O)[O-])cccc4c(c23)C(=O)N1CCNCCNCCN1C(=O)c2cccc3cc4c([N+](=O)[O-])cccc4c(c23)C1=O", "note": "[Example 13, N,N'-Bis-[2-(1,2-dihydro-8-nitro-1,3-dioxo-3H-dibenz[de,h]isoquinolin-2-yl)ethyl]1,3-ethylenediamine]", "values": [{"measurement": "IC50", "setting": "[1]; [7]", "value": "100 nM and 90 nM"}]}
{"smiles": "O=C1c2cccc3cc4ccccc4c(c23)C(=O)N1CCNCCCNCCN1C(=O)c2cccc3cc4ccccc4c(c23)C1=O", "note": "[1 2 CH3 --SO3 H salt]", "values": [{"measurement": "IC50", "setting": "[1]; [2]", "value": 20, "unit": "nM"}, {"measurement": "IC50", "setting": "[1]; [3]", "value": 10, "unit": "nM"}, {"measurement": "% T/C", "setting": "M5076 murine sarcoma; Experiment 1, 1.8 mg/kg", "value": 154, "unit": "%"}, {"measurement": "MST", "setting": "M5076 murine sarcoma; Experiment 1, 1.8 mg/kg, control MST 19.5", "value": 30}, {"measurement": "% T/C", "setting": "M5076 murine sarcoma; Experiment 1, 2.6 mg/kg", "value": 123, "unit": "%"}, {"measurement": "MST", "setting": "M5076 murine sarcoma; Experiment 1, 2.6 mg/kg, control MST 19.5", "value": 24}, {"measurement": "% T/C", "setting": "M5076 murine sarcoma; Experiment 1, 4 mg/kg", "value": "toxic"}, {"measurement": "MST", "setting": "M5076 murine sarcoma; Experiment 1, 4 mg/kg, control MST 19.5", "value": "toxic"}, {"measurement": "% T/C", "setting": "M5076 murine sarcoma; Experiment 2, 1.2 mg/kg", "value": 128, "unit": "%"}, {"measurement": "MST", "setting": "M5076 murine sarcoma; Experiment 2, 1.2 mg/kg, control MST 23.5", "value": 30}, {"measurement": "% T/C", "setting": "M5076 murine sarcoma; Experiment 2, 1.8 mg/kg", "value": 98, "unit": "%"}, {"measurement": "MST", "setting": "M5076 murine sarcoma; Experiment 2, 1.8 mg/kg, control MST 23.5", "value": 23}, {"measurement": "% T/C", "setting": "M5076 murine sarcoma; Experiment 2, 2.7 mg/kg", "value": "toxic"}, {"measurement": "MST", "setting": "M5076 murine sarcoma; Experiment 2, 2.7 mg/kg, control MST 23.5", "value": "toxic"}, {"measurement": "treated MST/Control MST percentage (% T/C)", "setting": "M5076 murine sarcoma; both studies, reproducibly, meaningful antitumor activity", "value": "greater than 125%"}]}
{"smiles": "O=C1c2cccc3cc4ccccc4c(c23)C(=O)N1CCNCCNCCN1C(=O)c2cccc3cc4ccccc4c(c23)C1=O", "note": "[Example 2, N,N'-Bis[2-(1,2-dihydro-1,3-dioxo-3H-dibenz[de,h]isoquinolin-2-yl)ethyl]-1,2-ethylenediamine]", "values": [{"measurement": "IC50", "setting": "[1]; [5]", "value": 8, "unit": "nM"}, {"measurement": "IC50", "setting": "[1]; [6]", "value": 10, "unit": "nM"}]}
{"smiles": "O=C1c2cccc3cc4ccccc4c(c23)C(=O)N1CCCNCCCN1C(=O)c2cccc3cc4ccccc4c(c23)C1=O", "note": "[Example 7, Bis[3-(1,2-dihydro-1,3-dioxo-3H-dibenz[de,h]isoquinolin-2-yl)propyl]amine]", "values": [{"measurement": "IC50", "setting": "[1]; [6]", "value": 20, "unit": "nM"}]}
{"smiles": "O=C1c2cccc3cc4ccccc4c(c23)C(=O)N1CCCNCCCCNCCCN1C(=O)c2cccc3cc4ccccc4c(c23)C1=O", "note": "[Example 3, N,N'-Bis[3-(1,2-dihydro-1,3-dioxo-3H-dibenz[de,h]isoquinolin-2-yl)propyl]-1,4-butanediamine]", "values": [{"measurement": "IC50", "setting": "[1]; [6]", "value": 200, "unit": "nM"}]}
{"smiles": "O=C1c2cccc3cc4ccccc4c(c23)C(=O)N1CCCNCCNCCCN1C(=O)c2cccc3cc4ccccc4c(c23)C1=O", "note": "[Example 10, N,N'-Bis[3-(1,2-dihydro-1,3-dioxo-3H-dibenz[de,h]isoquinolin-2-yl)propyl]-1,2-ethylenediamine]", "values": [{"measurement": "IC50", "setting": "[1]; [5]", "value": 90, "unit": "nM"}, {"measurement": "IC50", "setting": "[1]; [6]", "value": 100, "unit": "nM"}]}
{"smiles": "O=C1c2cccc3cc4ccccc4c(c23)C(=O)N1CCNCCCNCCN1C(=O)c2cccc3cc4ccccc4c(c23)C1=O", "note": "[Example 1, N,N'-Bis[2-(1,2-dihydro-1,3-dioxo-3H-dibenz[de,h]isoquinoline-2-yl)ethyl]-1,3-propanediamine]", "values": [{"measurement": "IC50", "setting": "[1]; [5]", "value": 5, "unit": "nM"}, {"measurement": "IC50", "setting": "[1]; [6]", "value": 4, "unit": "nM"}]}
